{"source": "paper PMC4857601", "about": "(Nature chemistry, 2016)", "key": {"[1]": {"target": "T1, DFsc (2A3H-DFsc), [DFsc-Zn(II)2] (synthetic construct, UniProt Z9QLD2D1S0, H107N)", "T1 sequence (Z9QLD2D1S0 1-115 H107N)": "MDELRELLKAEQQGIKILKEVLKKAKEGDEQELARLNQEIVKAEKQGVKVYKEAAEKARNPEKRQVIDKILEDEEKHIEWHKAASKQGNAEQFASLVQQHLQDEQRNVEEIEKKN", "experiment": "UV/vis", "assay_type": "binding", "details": "Zn(II)-bound form; bound as semiquinone derived from 4-t-butylcatechol"}, "[2]": {"target": "T2, DFsc (2A3H-DFsc), [DFsc-Zn(II)2] (synthetic construct, UniProt Z9QLD2D1S0, H107A)", "T2 sequence (Z9QLD2D1S0 1-115 H107A)": "T1 sequence (Z9QLD2D1S0 1-115 H107N) with N107A", "experiment": "UV/vis", "assay_type": "binding", "details": "Zn(II)-bound form; bound as semiquinone derived from 4-t-butylcatechol"}}, "note": "Residue numbers refer to the chain shown, from its start.", "data": [{"smiles": "CC(C)(C)c1ccc(O)c(O)c1", "values": [{"measurement": "UV/vis", "setting": "[1]", "result": "The variants also form a 4-t-butylcatechol-derived SQ• complex"}, {"measurement": "UV/vis", "setting": "[2]", "result": "The variants also form a 4-t-butylcatechol-derived SQ• complex"}]}]}
